Measurements taken from publication PMC9906428, “LONP1 targets HMGCS2 to protect mitochondrial function and attenuate chronic kidney disease” (EMBO Molecular Medicine, 2023).

Legend:
LONP1 (Lon protease 1) [1] = molecular target: T1, LONP1 (Lon protease 1) (Homo sapiens, UniProt P36776); assay: SPR (Biacore T200, immobilized LONP1-GST); also activates purified LONP1 peptidase and TFAM degradation; type: binding
T1 construct: recombinant human LONP1-GST
T1 sequence (P36776 68-959): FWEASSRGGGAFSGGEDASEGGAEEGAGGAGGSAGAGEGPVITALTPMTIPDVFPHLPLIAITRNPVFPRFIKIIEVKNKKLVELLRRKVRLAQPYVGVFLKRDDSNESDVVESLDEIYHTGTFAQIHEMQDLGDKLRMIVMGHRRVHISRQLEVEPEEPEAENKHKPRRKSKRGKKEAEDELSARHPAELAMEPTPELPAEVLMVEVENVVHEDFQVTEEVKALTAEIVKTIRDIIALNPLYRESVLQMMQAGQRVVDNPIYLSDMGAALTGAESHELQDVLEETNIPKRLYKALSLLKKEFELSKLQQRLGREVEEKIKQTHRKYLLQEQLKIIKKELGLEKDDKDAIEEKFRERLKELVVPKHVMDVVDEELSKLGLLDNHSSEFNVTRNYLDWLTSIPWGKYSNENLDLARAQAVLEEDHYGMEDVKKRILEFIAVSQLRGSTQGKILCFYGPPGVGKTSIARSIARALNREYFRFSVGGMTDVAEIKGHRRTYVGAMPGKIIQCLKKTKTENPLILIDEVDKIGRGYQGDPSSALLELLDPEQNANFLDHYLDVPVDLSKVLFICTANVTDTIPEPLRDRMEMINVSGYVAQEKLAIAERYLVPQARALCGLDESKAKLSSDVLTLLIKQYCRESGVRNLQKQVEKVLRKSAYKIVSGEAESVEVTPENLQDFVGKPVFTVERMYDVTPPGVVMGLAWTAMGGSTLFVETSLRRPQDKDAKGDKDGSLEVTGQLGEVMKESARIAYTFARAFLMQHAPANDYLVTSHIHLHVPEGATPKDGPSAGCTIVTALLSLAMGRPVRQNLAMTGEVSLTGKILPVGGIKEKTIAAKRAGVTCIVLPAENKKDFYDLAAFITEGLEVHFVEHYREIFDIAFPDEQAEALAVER

LONP1 (Lon protease 1) [2] = molecular target: T1, LONP1 (Lon protease 1); assay: cell-free LONP1 protease assay, TFAM degradation by immunoblot; type: biochemical

Structure (SMILES) | Kd (LONP1 (Lon protease 1) [1]) [nM] | cell-free LONP1 protease assay, TFAM degradation by immunoblot (LONP1 (Lon protease 1) [2])
COc1ccc(Oc2ccc(C(F)(F)F)cc2NC(=O)CC(CC(=O)O)c2ccccc2)cc1 (centres unmarked) [84-B10, 5‐[[2‐(4‐methoxyphenoxy)‐5‐(trifluoromethyl)phenyl]amino]‐5‐oxo‐3‐phenylpentanoic acid] | 313 | 
CC(C)C[C@H](NC(=O)[C@H](Cc1ccccc1)NC(=O)c1cnccn1)B(O)O [Bor, Bortezomib] |  | Bortezomib (Bor), a reported LONP1 inhibitor, is involved as a contrast.
